This is an account of results in PubChem BioAssay AID1259407 (Chemical Carcinogenesis Research Information System (CCRIS), 2018).

Activity calls are given as the source filed them. No rule for the calls is given here.

The subject of the data set is CCRIS mutagenicity, Ames/micronucleus/aberration tests. The data set is described as follows: CCRIS mutagenicity studies.
Setting [1] is: Test System: AMES SALMONELLA TYPHIMURIUM, Strain/Indicator: TA98, Metabolic Activation: NONE, Method: PREINCUBATION
Setting [2] is: Test System: AMES SALMONELLA TYPHIMURIUM, Strain/Indicator: TA98, Metabolic Activation: RAT, LIVER, S-9, AROCLOR 1254 (10%), Method: PREINCUBATION
The mark [3] stands for this setting: Test System: AMES SALMONELLA TYPHIMURIUM, Strain/Indicator: TA100, Metabolic Activation: NONE, Method: PREINCUBATION
Where [4] appears, read: Test System: AMES SALMONELLA TYPHIMURIUM, Strain/Indicator: TA100, Metabolic Activation: RAT, LIVER, S-9, AROCLOR 1254 (10%), Method: PREINCUBATION
Where [5] appears, read: Test System: AMES SALMONELLA TYPHIMURIUM, Strain/Indicator: TA1535, Metabolic Activation: NONE, Method: PREINCUBATION
Where [6] appears, read: Test System: AMES SALMONELLA TYPHIMURIUM, Strain/Indicator: TA1537, Metabolic Activation: NONE, Method: PREINCUBATION
Setting [7] is: Test System: AMES SALMONELLA TYPHIMURIUM, Strain/Indicator: TA98, Metabolic Activation: RAT, LIVER, S-9, AROCLOR 1254 (30%), Method: PREINCUBATION
Setting [8] is: Test System: AMES SALMONELLA TYPHIMURIUM, Strain/Indicator: TA100, Metabolic Activation: RAT, LIVER, S-9, AROCLOR 1254 (30%), Method: PREINCUBATION

Regarding `C=CCOC(=O)c1ccccc1N`, the mutagenic call reads like this: (Test System: AMES SALMONELLA TYPHIMURIUM, Strain/Indicator: TA98, Metabolic Activation: HAMSTER, LIVER, S-9, AROCLOR 1254 (10%), Method: PREINCUBATION) “inactive; negative”; under setting [1], “inactive; negative”; under setting [2], “inactive; negative”; (Test System: AMES SALMONELLA TYPHIMURIUM, Strain/Indicator: TA100, Metabolic Activation: HAMSTER, LIVER, S-9, AROCLOR 1254 (10%), Method: PREINCUBATION) “inactive; negative”; under setting [3], “inactive; negative”; under setting [4], “inactive; negative”. In addition, the mutagenic call (Test System: AMES SALMONELLA TYPHIMURIUM, Strain/Indicator: TA1535, Metabolic Activation: HAMSTER, LIVER, S-9, AROCLOR 1254 (10%), Method: PREINCUBATION) is “inactive; negative”; the mutagenic call under setting [5] was “inactive; negative”; the mutagenic call (Test System: AMES SALMONELLA TYPHIMURIUM, Strain/Indicator: TA1535, Metabolic Activation: RAT, LIVER, S-9, AROCLOR 1254 (10%), Method: PREINCUBATION) was “inactive; negative”; the mutagenic call (Test System: AMES SALMONELLA TYPHIMURIUM, Strain/Indicator: TA1537, Metabolic Activation: HAMSTER, LIVER, S-9, AROCLOR 1254 (10%), Method: PREINCUBATION) is “inactive; negative”; the mutagenic call under setting [6] was “inactive; negative”; the mutagenic call (Test System: AMES SALMONELLA TYPHIMURIUM, Strain/Indicator: TA1537, Metabolic Activation: RAT, LIVER, S-9, AROCLOR 1254 (10%), Method: PREINCUBATION) was “inactive; negative”.

Take `c1ccc2cc3c(cc2c1)cc1ccc2cccc4ccc3c1c24`: the mutagenic call (Test System: HUMAN H1A1V2 CELLS, Strain/Indicator: TK LOCUS, Metabolic Activation: NONE, Method: SUSPENSION/PLATE) was “active; positive”.

In the case of `C[n+]1cccc(-c2ccc[n+](C)c2)c1`, the mutagenic call was “inactive; negative” (Test System: AMES SALMONELLA TYPHIMURIUM, Strain/Indicator: TA97, Metabolic Activation: RAT, LIVER, S-9, PHENOBARBITAL, Method: STANDARD PLATE); “inactive; negative” (Test System: AMES SALMONELLA TYPHIMURIUM, Strain/Indicator: TA98, Metabolic Activation: RAT, LIVER, S-9, PHENOBARBITAL, Method: STANDARD PLATE); “active; positive” (Test System: AMES SALMONELLA TYPHIMURIUM, Strain/Indicator: TA100, Metabolic Activation: RAT, LIVER, S-9, PHENOBARBITAL, Method: STANDARD PLATE); “inactive; negative” (Test System: AMES SALMONELLA TYPHIMURIUM, Strain/Indicator: TA1535, Metabolic Activation: RAT, LIVER, S-9, PHENOBARBITAL, Method: STANDARD PLATE); “inactive; negative” (Test System: AMES SALMONELLA TYPHIMURIUM, Strain/Indicator: TA1537, Metabolic Activation: RAT, LIVER, S-9, PHENOBARBITAL, Method: STANDARD PLATE); “inactive; negative” (Test System: AMES SALMONELLA TYPHIMURIUM, Strain/Indicator: TA1538, Metabolic Activation: RAT, LIVER, S-9, PHENOBARBITAL, Method: STANDARD PLATE).

As to `Cc1ccc(S(=O)(=O)NC2CCCCC2)cc1`, the mutagenic call was “inactive; negative” (Test System: AMES SALMONELLA TYPHIMURIUM, Strain/Indicator: TA97, Metabolic Activation: HAMSTER, LIVER, S-9, AROCLOR 1254 (10 OR 30%), Method: PREINCUBATION); “inactive; negative” (Test System: AMES SALMONELLA TYPHIMURIUM, Strain/Indicator: TA97, Metabolic Activation: NONE, Method: PREINCUBATION); “inactive; negative” (Test System: AMES SALMONELLA TYPHIMURIUM, Strain/Indicator: TA97, Metabolic Activation: RAT, LIVER, S-9, AROCLOR 1254 (10 OR 30%), Method: PREINCUBATION); “inactive; negative” (Test System: AMES SALMONELLA TYPHIMURIUM, Strain/Indicator: TA98, Metabolic Activation: HAMSTER, LIVER, S-9, AROCLOR 1254 (10 OR 30%), Method: PREINCUBATION); “inactive; negative” under setting [2]; “inactive; negative” under setting [7]. For the same compound, the mutagenic call reads like this: (Test System: AMES SALMONELLA TYPHIMURIUM, Strain/Indicator: TA100, Metabolic Activation: HAMSTER, LIVER, S-9, AROCLOR 1254 (10 OR 30%), Method: PREINCUBATION) “inactive; negative”; under setting [3], “inactive; negative”; under setting [4], “inactive; negative”; under setting [8], “inactive; negative”; (Test System: AMES SALMONELLA TYPHIMURIUM, Strain/Indicator: TA1535, Metabolic Activation: HAMSTER, LIVER, S-9, AROCLOR 1254 (10 OR 30%), Method: PREINCUBATION) “inactive; negative”; under setting [5], “inactive; negative”. Further, the mutagenic call (Test System: AMES SALMONELLA TYPHIMURIUM, Strain/Indicator: TA1535, Metabolic Activation: RAT, LIVER, S-9, AROCLOR 1254 (10 OR 30%), Method: PREINCUBATION) was “inactive; negative”; the mutagenic call (Test System: AMES SALMONELLA TYPHIMURIUM, Strain/Indicator: TA1537, Metabolic Activation: HAMSTER, LIVER, S-9, AROCLOR 1254 (30%), Method: PREINCUBATION) was “inactive; negative”; the mutagenic call under setting [6] is “inactive; negative”; the mutagenic call (Test System: AMES SALMONELLA TYPHIMURIUM, Strain/Indicator: TA1537, Metabolic Activation: RAT, LIVER, S-9, AROCLOR 1254 (30%), Method: PREINCUBATION) was “inactive; negative”.

As for `NC(=O)Nc1nc2ccccc2[nH]1`, the mutagenic call is “active; positive” (Test System: AMES SALMONELLA TYPHIMURIUM, Strain/Indicator: TA98, Metabolic Activation: HAMSTER, LIVER, S-9, AROCLOR 1254 (30%), Method: PREINCUBATION); “active; positive” under setting [1]; “active; positive” under setting [7]; “inactive; negative” (Test System: AMES SALMONELLA TYPHIMURIUM, Strain/Indicator: TA100, Metabolic Activation: HAMSTER, LIVER, S-9, AROCLOR 1254 (30%), Method: PREINCUBATION); “inactive; negative” under setting [3]; “inactive; negative” under setting [8].

With `O=P([O-])([O-])OC(CCO)CCO.O=P([O-])([O-])OCC(O)CO.[Mn+2].[Mn+2]`, the mutagenic call was “inactive; negative” (Test System: AMES SALMONELLA TYPHIMURIUM, Strain/Indicator: TA98, Metabolic Activation: NONE, Method: STANDARD PLATE); “inactive; negative” (Test System: AMES SALMONELLA TYPHIMURIUM, Strain/Indicator: TA98, Metabolic Activation: RAT, LIVER, S-9, AROCLOR 1254, Method: STANDARD PLATE); “inactive; negative” (Test System: AMES SALMONELLA TYPHIMURIUM, Strain/Indicator: TA100, Metabolic Activation: NONE, Method: STANDARD PLATE); “inactive; negative” (Test System: AMES SALMONELLA TYPHIMURIUM, Strain/Indicator: TA100, Metabolic Activation: RAT, LIVER, S-9, AROCLOR 1254, Method: STANDARD PLATE); “inactive; negative” (Test System: AMES SALMONELLA TYPHIMURIUM, Strain/Indicator: TA1535, Metabolic Activation: NONE, Method: STANDARD PLATE); “inactive; negative” (Test System: AMES SALMONELLA TYPHIMURIUM, Strain/Indicator: TA1535, Metabolic Activation: RAT, LIVER, S-9, AROCLOR 1254, Method: STANDARD PLATE). The mutagenic call (Test System: AMES SALMONELLA TYPHIMURIUM, Strain/Indicator: TA1537, Metabolic Activation: NONE, Method: STANDARD PLATE) was “inactive; negative”; the mutagenic call (Test System: AMES SALMONELLA TYPHIMURIUM, Strain/Indicator: TA1537, Metabolic Activation: RAT, LIVER, S-9, AROCLOR 1254, Method: STANDARD PLATE) is “inactive; negative”; the mutagenic call (Test System: AMES SALMONELLA TYPHIMURIUM, Strain/Indicator: TA1538, Metabolic Activation: NONE, Method: STANDARD PLATE) is “inactive; negative”; the mutagenic call (Test System: AMES SALMONELLA TYPHIMURIUM, Strain/Indicator: TA1538, Metabolic Activation: RAT, LIVER, S-9, AROCLOR 1254, Method: STANDARD PLATE) was “inactive; negative”; the mutagenic call (Test System: E. COLI, Strain/Indicator: WP2, Metabolic Activation: NONE, Method: STANDARD PLATE) is “inactive; negative”; the mutagenic call (Test System: E. COLI, Strain/Indicator: WP2, Metabolic Activation: RAT, LIVER, S-9, AROCLOR 1254, Method: STANDARD PLATE) was “inactive; negative”.
